The supplement of paper PMC10307832

Tests used:
Test in all cases: relative viability (nuclei count vs DMSO), 5 days (fraction); higher = more cells survive
[1] = compound: Cn1cc(-c2cnn3c(N)c(Br)c([C@@H]4CCCNC4)nc23)cn1 + NC(=O)Nc1cc(-c2cccc(F)c2)sc1C(=O)N[C@H]1CCCNC1 [AZD7762] (partner 0.2 µM)
Procedure, shortened: (§1)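 Lung cancer cell lines were seeded in 1536-well plates and dosed by pin tool the next day, with either a single drug or a fixed anchor-drug dose combined with five library-drug doses (not always all listed) spaced in √10 steps. Five days later, one step fixed the cells and stained their nuclei (final 0.05% Triton X-100, 1% formaldehyde, 1 ug/ml Hoechst), and nuclei were counted on 4× images. Relative viability is the nuclei count in treated wells divided by the count in vehicle wells, and each value is the median of duplicate plates.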

[2] = compound: Cn1cc(-c2cnn3c(N)c(Br)c([C@@H]4CCCNC4)nc23)cn1 + Nc1ncn([C@H]2C[C@H](O)[C@@H](CO)O2)c(=O)n1 [Decitabine] (partner 2 µM)
Procedure, shortened: as §1

[3] = compound: Cn1cc(-c2cnn3c(N)c(Br)c([C@@H]4CCCNC4)nc23)cn1 + O=C(c1cc(Cc2n[nH]c(=O)c3ccccc23)ccc1F)N1CCN(C(=O)C2CC2)CC1 [Olaparib] (partner 8 µM)
Procedure, shortened: as §1

[4] = compound: Cn1cc(-c2cnn3c(N)c(Br)c([C@@H]4CCCNC4)nc23)cn1 + CS(=O)(=O)CCNCc1ccc(-c2ccc3ncnc(Nc4ccc(OCc5cccc(F)c5)c(Cl)c4)c3c2)o1 [Lapatinib] (partner 2 µM)
Procedure, shortened: as §1

Cell Line | relative viability ([1]; first compound 0.05 µM) | relative viability ([1]; first compound 0.1581 µM) | relative viability ([1]; first compound 0.5 µM) | relative viability ([1]; first compound 1.581 µM) | relative viability ([1]; first compound 5 µM) | relative viability ([2]; first compound 0.05 µM) | relative viability ([2]; first compound 0.1581 µM) | relative viability ([2]; first compound 0.5 µM) | relative viability ([2]; first compound 1.581 µM) | relative viability ([2]; first compound 5 µM) | relative viability ([3]; first compound 0.05 µM) | relative viability ([3]; first compound 0.1581 µM) | relative viability ([3]; first compound 0.5 µM) | relative viability ([3]; first compound 1.581 µM) | relative viability ([3]; first compound 5 µM) | relative viability ([4]; first compound 0.05 µM) | relative viability ([4]; first compound 0.1581 µM) | relative viability ([4]; first compound 0.5 µM) | relative viability ([4]; first compound 1.581 µM) | relative viability ([4]; first compound 5 µM)
NCI-H3122 | 0.981 | 1.07 | 1 | 0.883 | 1.16 | 0.427 | 0.454 | 0.329 | 0.413 | 0.511 | 0.647 | 0.674 | 0.598 | 0.635 | 0.563 | 1.1 | 1.07 | 1.07 | 1.04 | 1.05
PC-3 [JPC-3] | 0.774 | 0.766 |  | 0.616 | 0.637 | 0.759 | 0.86 |  | 0.808 | 0.853 | 1.14 | 1.02 |  | 1.09 | 1.15 | 0.423 | 0.504 | 0.474 | 0.416 | 0.482
PC-14 | 0.348 | 0.273 | 0.332 | 0.277 | 0.182 | 0.237 | 0.2 | 0.206 | 0.186 | 0.123 | 0.211 | 0.213 | 0.222 | 0.19 | 0.125 | 0.322 | 0.366 | 0.363 | 0.332 | 0.257
RERF-LC-KJ | 1.1 | 0.864 | 1.1 | 0.872 | 0.749 | 0.822 | 0.85 | 0.636 | 0.549 | 0.628 | 1.05 | 0.996 | 0.869 | 0.762 | 0.662 | 0.917 | 0.966 | 0.862 | 0.828 | 0.771
